# In US20240285571A1, “METHODS OF TREATING BONE INFECTIONS” (MICROBION CORPORATION, priority 2020, published 2024):
# Like-named read-outs stand apart in the source and are kept apart here.
# Legend:
# E. faecium = assay: Broth microdilution MIC (Example 5); assay type: cell-based; conditions: VRE vanA
# Procedure, shortened: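 Colonies were suspended to a 0.5 McFarland standard, diluted in test media, and dispensed into plates holding two-fold serial drug dilutions.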
# [1] = test system: relevant ATCC QC organisms; conditions: CLSI established QC range, cited from earlier work
# [2] = test system: vancomycin-intermediate Staphylococcus aureus; assay: Broth microdilution MIC (Example 6); assay type: cell-based
# Procedure, shortened: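 CLSI broth microdilution in cation-adjusted Mueller Hinton broth, test agents 0.06-64 μg/mL from DMSO stocks, inoculum approx. 5×10^5 CFU/mL. Incubation 35° C for 16–20 hr; MIC taken as lowest concentration inhibiting visible growth.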
# [3] = test system: Corynebacterium resistens; assay: MIC of baseline clinical isolates (Example 8); assay type: cell-based; conditions: Corynebacterium resistens baseline isolates (N′ = 1), central laboratory, mITT
# Procedure, shortened: (§1)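 MIC values reflect CLSI susceptibility testing of MBN-101 (BisEDT) on baseline clinical isolates. These were recovered at a central lab from bone, tissue, swab and sinus tract samples of the infected index site.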
# Dermabacter hominis = assay: MIC of baseline clinical isolates (Example 8); assay type: cell-based; conditions: Dermabacter hominis baseline isolates (N′ = 1), central laboratory, mITT
# Procedure, shortened: as §1
# [4] = test system: Corynebacterium amycolatum; assay: MIC of baseline clinical isolates (Example 8); assay type: cell-based; conditions: Corynebacterium amycolatum baseline isolates (N′ = 1), central laboratory, mITT
# Procedure, shortened: as §1
# Streptococcus oralis = assay: MIC of baseline clinical isolates (Example 8); assay type: cell-based; conditions: Streptococcus oralis baseline isolates (N′ = 1), central laboratory, mITT
# Procedure, shortened: as §1
smiles,measurement,setting,value
CC(C)(O/N=C(\C(=O)N[C@@H]1C(=O)N2C(C(=O)[O-])=C(C[n+]3ccccc3)CS[C@H]12)c1csc(N)n1)C(=O)O [Ceftazidime],MIC,E. faecium; E. faecium MMX 485,>32 µg/mL
same,MIC QC range (in parentheses),[1]; E. coli ATCC 25922,(0.06-0.5) μg/mL
same,MIC QC range (in parentheses),[1]; P. aeruginosa ATCC 27853,(1-4) μg/mL
C[C@H]1COc2c(N3CCN(C)CC3)c(F)cc3c(=O)c(C(=O)O)cn1c23 [Levofloxacin],MIC,"[2]; Staphylococcus aureus, NRS1, S. aureus isolate NRS 1 (hVISA), read-out: MIC",4 µg/mL
same,MIC,"[2]; Staphylococcus aureus, NRS2, S. aureus isolate NRS 2, read-out: MIC",4 µg/mL
same,MIC,"[2]; Staphylococcus aureus, NRS3, S. aureus isolate NRS 3, read-out: MIC",> 8 µg/mL
same,MIC,"[2]; Staphylococcus aureus, NRS4, S. aureus isolate NRS 4, read-out: MIC",4 µg/mL
same,MIC,"[2]; Staphylococcus aureus, NRS13, S. aureus isolate NRS 13, read-out: MIC",0.12 µg/mL
same,MIC,"[2]; Staphylococcus aureus, NRS18, S. aureus isolate NRS 18, read-out: MIC",4 µg/mL
same,MIC,"[2]; Staphylococcus aureus, NRS22, S. aureus isolate NRS 22, read-out: MIC",8 µg/mL
same,MIC,"[2]; Staphylococcus aureus, NRS24, S. aureus isolate NRS 24 (hVISA), read-out: MIC",> 8 µg/mL
same,MIC,"[2]; Staphylococcus aureus, NRS27, S. aureus isolate NRS 27, read-out: MIC",8 µg/mL
same,MIC,E. faecium; E. faecium MMX 485,>64 µg/mL
same,MIC,[3],0.12 µg/mL
same,n (% resistant),[3],0 (0.0) n (%)
same,MIC,Dermabacter hominis,1 µg/mL
same,n (% resistant),Dermabacter hominis,0 (0.0) n (%)
same,MIC,[4],8 µg/mL
same,n (% resistant),[4],0 (0.0) n (%)
same,MIC,Streptococcus oralis,2 µg/mL
same,n (% resistant),Streptococcus oralis,0 (0.0) n (%)
"OCC(S)CS.[Bi] (centres unmarked) [MB-2B, bismuth-2,3-dimercaptopropanol]",MIC,"[2]; Staphylococcus aureus, NRS1",1 µg/mL
same,MIC,"[2]; Staphylococcus aureus, NRS2",0.5 µg/mL
same,MIC,"[2]; Staphylococcus aureus, NRS3",2 µg/mL
same,MIC,"[2]; Staphylococcus aureus, NRS4",1 µg/mL
same,MIC,"[2]; Staphylococcus aureus, NRS13",1 µg/mL
same,MIC,"[2]; Staphylococcus aureus, NRS18",1 µg/mL
same,MIC,"[2]; Staphylococcus aureus, NRS22",2 µg/mL
same,MIC,"[2]; Staphylococcus aureus, NRS24",1 µg/mL
same,MIC,"[2]; Staphylococcus aureus, NRS27",1 µg/mL
same,MIC,"E. faecium; Enterococcus faecium, VRE, E. faecium MMX 485",2 µg/mL
same,MIC,"E. faecium; Enterococcus faecium, VRE, E. faecium MMX 752",4 µg/mL
CCC[C@@H]1C[C@@H](C(=O)N[C@@H]([C@H]2O[C@H](SC)[C@H](O)[C@@H](O)[C@H]2O)[C@H](C)Cl)N(C)C1 [CLI],MIC,[2]; S. aureus isolate NRS 1 (hVISA),>8 µg/mL
same,MIC,[2]; S. aureus isolate NRS 2,>8 µg/mL
same,MIC,[2]; S. aureus isolate NRS 3,>8 µg/mL
same,MIC,[2]; S. aureus isolate NRS 4,>8 µg/mL
same,MIC,[2]; S. aureus isolate NRS 13,0.06 µg/mL
same,MIC,[2]; S. aureus isolate NRS 18,>8 µg/mL
same,MIC,[2]; S. aureus isolate NRS 22,>8 µg/mL
same,MIC,[2]; S. aureus isolate NRS 24 (hVISA),>8 µg/mL
same,MIC,[2]; S. aureus isolate NRS 27,>8 µg/mL
same,MIC QC range (in parentheses),[1]; S. aureus ATCC 29213,(0.06-0.25) μg/mL
same,Mean MIC,[3],0.50 µg/mL
same,n (% resistant),[3],0 (0.0) n (%)
same,Mean MIC,Dermabacter hominis,0.50 µg/mL
same,n (% resistant),Dermabacter hominis,0 (0.0) n (%)
same,Mean MIC,[4],2.00 µg/mL
same,n (% resistant),[4],1 (100.0) n (%)
same,Mean MIC,Streptococcus oralis,0.03 µg/mL
same,n (% resistant),Streptococcus oralis,0 (0.0) n (%)
C[C@@H](O)[C@H]1C(=O)N2C(C(=O)O)=C(S[C@@H]3CN[C@H](C(=O)N(C)C)C3)[C@H](C)[C@H]12 [Meropenem],MIC,E. faecium; E. faecium MMX 485,>64 µg/mL
same,MIC QC range (in parentheses),[1]; E. coli ATCC 25922,(0.008-0.06) μg/mL
same,MIC QC range (in parentheses),[1]; E. coli ATCC 35218,(0.008-0.06) μg/mL
same,MIC QC range (in parentheses),[1]; K. pneumoniae ATCC BAA-1705,(8-64) μg/mL
same,MIC QC range (in parentheses),[1]; P. aeruginosa ATCC 27853,(0.12-1) μg/mL
NCC[C@H](O)C(=O)N[C@@H]1C[C@H](N)[C@@H](O[C@H]2O[C@H](CN)[C@@H](O)[C@H](O)[C@H]2O)[C@H](O)[C@H]1O[C@H]1O[C@H](CO)[C@@H](O)[C@H](N)[C@H]1O [Amikacin],MIC QC range (in parentheses),[1]; P. aeruginosa ATCC 27853,(1-4) μg/mL
"CC(S)C(C)S.[Bi] (centres unmarked) [MB-6, bismuth-2,3-butanedithiol]",MIC,"[2]; Staphylococcus aureus, NRS1",0.12 µg/mL
same,MIC,"[2]; Staphylococcus aureus, NRS2",≤ 0.06 µg/mL
same,MIC,"[2]; Staphylococcus aureus, NRS24",1 µg/mL
